Results published in PubChem BioAssay AID1963968 (Molecular Pharmacology Branch, DTP, NCI, 2024).
Values joined by “and” are separate entries in the source; they are usually repeats but may differ in a detail not shown here. Identical values can stand only once.

Test system: 945468-187-T-J3-PDC spheroids with HUVEC/MSC, viability
Experiment: Anticancer human tumor 945468-187-T-J3-PDC patient-derived rectal carcinoma cell line growth inhibition [PI3K]
Details: for viability, T/C: stronger effect = lower value; active = viability on the fitted dose curve at most 10% of control; inactive = the rest
In short: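 Viability of mixed-cell spheroids was determined after exposure to pairwise combinations, one partner being inavolisib, alpelisib, duvelisib or copanlisib. Highest tested concentration matched clinical Cmax where known and 10 microM where not, descending in half-log steps.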

[1] = curve of first compound, second compound 0.00316 µM
[2] = curve of first compound, second compound 0.01 µM
[3] = curve of first compound, second compound 0.0316 µM
[4] = curve of first compound, second compound 0.1 µM
[5] = curve of first compound, second compound 0.316 µM
[6] = curve of first compound, second compound 1 µM
[7] = second compound 0.00316 µM, first compound 0.0316 µM
[8] = second compound 0.00316 µM, first compound 0.1 µM
[9] = second compound 0.01 µM, first compound 0.0316 µM
[10] = second compound 0.01 µM, first compound 0.1 µM
[11] = second compound 0.0316 µM, first compound 0.0316 µM
[12] = second compound 0.0316 µM, first compound 0.1 µM
[13] = second compound 0.0316 µM, first compound 0.316 µM
[14] = second compound 0.0316 µM, first compound 1 µM
[15] = second compound 0.0316 µM, first compound 3.16 µM
[16] = second compound 0.0316 µM, first compound 10 µM
[17] = second compound 0.1 µM, first compound 0.0316 µM
[18] = second compound 0.1 µM, first compound 0.1 µM
[19] = second compound 0.1 µM, first compound 0.316 µM
[20] = second compound 0.1 µM, first compound 1 µM
[21] = second compound 0.1 µM, first compound 3.16 µM
[22] = second compound 0.1 µM, first compound 10 µM
[23] = second compound 0.316 µM, first compound 0.0316 µM
[24] = second compound 0.316 µM, first compound 0.1 µM
[25] = second compound 0.316 µM, first compound 0.316 µM
[26] = second compound 0.316 µM, first compound 1 µM
[27] = second compound 0.316 µM, first compound 3.16 µM
[28] = second compound 0.316 µM, first compound 10 µM
[29] = second compound 1 µM, first compound 0.0316 µM
[30] = second compound 1 µM, first compound 0.1 µM
[31] = second compound 1 µM, first compound 0.316 µM
[32] = second compound 1 µM, first compound 1 µM
[33] = second compound 1 µM, first compound 3.16 µM
[34] = second compound 1 µM, first compound 10 µM
[35] = second compound 0.00316 µM, first compound 0.000316 µM
[36] = second compound 0.00316 µM, first compound 0.001 µM
[37] = second compound 0.00316 µM, first compound 0.00316 µM
[38] = second compound 0.00316 µM, first compound 0.01 µM
[39] = second compound 0.01 µM, first compound 0.000316 µM
[40] = second compound 0.01 µM, first compound 0.001 µM
[41] = second compound 0.01 µM, first compound 0.00316 µM
[42] = second compound 0.01 µM, first compound 0.01 µM
[43] = second compound 0.0316 µM, first compound 0.000316 µM
[44] = second compound 0.0316 µM, first compound 0.001 µM
[45] = second compound 0.0316 µM, first compound 0.00316 µM
[46] = second compound 0.0316 µM, first compound 0.01 µM
[47] = second compound 0.1 µM, first compound 0.000316 µM
[48] = second compound 0.1 µM, first compound 0.001 µM
[49] = second compound 0.1 µM, first compound 0.00316 µM
[50] = second compound 0.1 µM, first compound 0.01 µM
[51] = second compound 0.316 µM, first compound 0.000316 µM
[52] = second compound 0.316 µM, first compound 0.001 µM
[53] = second compound 0.316 µM, first compound 0.00316 µM
[54] = second compound 0.316 µM, first compound 0.01 µM
[55] = second compound 1 µM, first compound 0.000316 µM
[56] = second compound 1 µM, first compound 0.001 µM
[57] = second compound 1 µM, first compound 0.00316 µM
[58] = second compound 1 µM, first compound 0.01 µM
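Note: spheroids exposed to agents for 7 days before viability read.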
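Throughout, for viability, T/C: 100% = DMSO vehicle control viability.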

CC1(C)CCC(CN2CCN(c3ccc(C(=O)NS(=O)(=O)c4ccc(NCC5CCOCC5)c([N+](=O)[O-])c4)c(Oc4cnc5[nH]ccc5c4)c3)CC2)=C(c2ccc(Cl)cc2)C1 + COc1c(OCCCN2CCOCC2)ccc2c3n(c(=NC(=O)c4cnc(N)nc4)nc12)CCN3
6290 nM: IC50 [3]
inactive: viability, T/C [7] 93.4% | viability, T/C [8] 106% | viability, T/C (second compound 0.00316 µM, first compound 0.316 µM) 117% | viability, T/C (second compound 0.00316 µM, first compound 1 µM) 91.1% | viability, T/C (second compound 0.00316 µM, first compound 3.16 µM) 116% | viability, T/C [9] 103% | viability, T/C [10] 90.8% | viability, T/C (second compound 0.01 µM, first compound 0.316 µM) 93.1% | viability, T/C (second compound 0.01 µM, first compound 1 µM) 97.3% | viability, T/C (second compound 0.01 µM, first compound 3.16 µM) 119% | viability, T/C (second compound 0.01 µM, first compound 10 µM) 11.3% | viability, T/C [11] 107% | viability, T/C [12] 94% | viability, T/C [13] 114% | viability, T/C [14] 98.1% | viability, T/C [15] 106% | viability, T/C [16] 13.7% | viability, T/C [17] 54% | viability, T/C [18] 43.4% | viability, T/C [19] 50.4% | viability, T/C [20] 53% | viability, T/C [21] 48.5% | viability, T/C [23] 22.1% | viability, T/C [24] 20.7% | viability, T/C [25] 18.1% | viability, T/C [26] 24.3% | viability, T/C [27] 25.7% | viability, T/C [28] 5.28% | viability, T/C [29] 16.7% | viability, T/C [30] 17.9% | viability, T/C [31] 17.8% | viability, T/C [32] 19.7% | viability, T/C [33] 17.7% | viability, T/C [34] 3.81%
active: viability, T/C (second compound 0.00316 µM, first compound 10 µM) 8% | viability, T/C [22] 8.54%
6080 nM: IC50 [2]
< 31.6 nM: IC50 [5] | IC50 [6]
1110 nM: IC50 [4]
6060 nM: IC50 [1]

Cn1ncnc1[C@H]1c2n[nH]c(=O)c3cc(F)cc(c23)N[C@@H]1c1ccc(F)cc1 + COc1c(OCCCN2CCOCC2)ccc2c3n(c(=NC(=O)c4cnc(N)nc4)nc12)CCN3
< 0.316 nM: IC50 [4] | IC50 [5] | IC50 [6]
> 100 nM: IC50 [1] | IC50 [2] | IC50 [3]
inactive: viability, T/C [35] 101% | viability, T/C [36] 90.1% | viability, T/C [37] 88.8% | viability, T/C [38] 92.6% | viability, T/C [7] 117% | viability, T/C [8] 92.8% | viability, T/C [39] 99.3% | viability, T/C [40] 91.4% | viability, T/C [41] 97.7% | viability, T/C [42] 92.5% | viability, T/C [9] 101% | viability, T/C [10] 95.4% | viability, T/C [43] 98.8% | viability, T/C [44] 93.9% | viability, T/C [45] 84.2% | viability, T/C [46] 86% | viability, T/C [11] 89.2% | viability, T/C [12] 97.6% | viability, T/C [47] 46.5% | viability, T/C [48] 55.3% | viability, T/C [49] 40.8% | viability, T/C [50] 49.5% | viability, T/C [17] 42% | viability, T/C [18] 38.8% | viability, T/C [51] 20.3% | viability, T/C [52] 21.3% | viability, T/C [53] 19.4% | viability, T/C [54] 22.2% | viability, T/C [23] 21.2% | viability, T/C [24] 18.5% | viability, T/C [55] 14.1% | viability, T/C [56] 15.5% | viability, T/C [57] 15.3% | viability, T/C [58] 15.7% | viability, T/C [29] 14.8% | viability, T/C [30] 12.6%

C=CC(=O)N1CCN(c2nc(=O)n(-c3c(C)ccnc3C(C)C)c3nc(-c4c(O)cccc4F)c(F)cc23)C(C)C1 (configuration not stated)
inactive: viability, T/C (compound 0.0316 µM) 99.2% and 94% and 95.5% | viability, T/C (compound 0.1 µM) 97.8% and 105% and 93.8% | viability, T/C (compound 0.316 µM) 103% and 94.5% and 98.7% | viability, T/C (compound 1 µM) 85.6% and 92.5% and 98.2% | viability, T/C (compound 3.16 µM) 88.8% and 100% and 113% | viability, T/C (compound 10 µM) 98.1% and 103% and 116%
> 10000 nM: IC50 (curve of compound)

C[C@@H](NC(=O)c1ncnc(N)c1Cl)c1ncc(C(=O)Nc2cc(C(F)(F)F)c(Cl)cn2)s1
inactive: viability, T/C (compound 0.0316 µM) 94.2% [middle of 4 runs] | viability, T/C (compound 0.1 µM) 104% [middle of 4 runs] | viability, T/C (compound 0.316 µM) 101% (2×) and 91.3% and 98.2% | viability, T/C (compound 1 µM) 105% [middle of 4 runs] | viability, T/C (compound 3.16 µM) 106% [middle of 4 runs] | viability, T/C (compound 10 µM) 108% [middle of 4 runs]
> 10000 nM: IC50 (curve of compound)

CC(=O)c1c(C)c2cnc(Nc3ccc(N4CCNCC4)cn3)nc2n(C2CCCC2)c1=O + CC(Nc1ccc2c(c1)OCCn1cc(N3C(=O)OCC3C(F)F)nc1-2)C(N)=O
> 100 nM: IC50 [1] | IC50 [2] | IC50 [3] | IC50 [4] | IC50 [5]
77.5 nM: IC50 [6]
inactive: viability, T/C [35] 90.5% | viability, T/C [36] 100% | viability, T/C [37] 94.9% | viability, T/C [38] 99.2% | viability, T/C [7] 108% | viability, T/C [8] 110% | viability, T/C [39] 97.6% | viability, T/C [40] 104% | viability, T/C [41] 101% | viability, T/C [42] 110% | viability, T/C [9] 109% | viability, T/C [10] 103% | viability, T/C [43] 108% | viability, T/C [44] 104% | viability, T/C [45] 92.8% | viability, T/C [46] 116% | viability, T/C [11] 101% | viability, T/C [12] 123% | viability, T/C [47] 110% | viability, T/C [48] 111% | viability, T/C [49] 104% | viability, T/C [50] 118% | viability, T/C [17] 115% | viability, T/C [18] 119% | viability, T/C [51] 118% | viability, T/C [52] 100% | viability, T/C [53] 90.1% | viability, T/C [54] 101% | viability, T/C [23] 104% | viability, T/C [24] 81.5% | viability, T/C [55] 83.1% | viability, T/C [56] 67.9% | viability, T/C [57] 64.7% | viability, T/C [58] 80.6% | viability, T/C [29] 74.8% | viability, T/C [30] 43.2%

Cn1ncc(Cl)c1-c1cc(C(=O)NC(CN)Cc2cccc(F)c2)sc1Cl (configuration not stated) + CC(Nc1ncnc2nc[nH]c12)c1cc2cccc(Cl)c2c(=O)n1-c1ccccc1
inactive: viability, T/C [11] 101% | viability, T/C [12] 96% | viability, T/C [13] 99.9% | viability, T/C [14] 59.3% | viability, T/C [15] 44.9% | viability, T/C [16] 33.5% | viability, T/C [17] 94.9% | viability, T/C [18] 104% | viability, T/C [19] 88.2% | viability, T/C [20] 60.5% | viability, T/C [21] 51.5% | viability, T/C [22] 38.2% | viability, T/C [23] 106% | viability, T/C [24] 97.3% | viability, T/C [25] 87.3% | viability, T/C [26] 62.1% | viability, T/C [27] 41.2% | viability, T/C [28] 28.6% | viability, T/C [29] 112% | viability, T/C [30] 89.5% | viability, T/C [31] 86.2% | viability, T/C [32] 48.6% | viability, T/C [33] 39% | viability, T/C [34] 28.5% | viability, T/C (second compound 3.16 µM, first compound 0.0316 µM) 107% | viability, T/C (second compound 3.16 µM, first compound 0.1 µM) 97.7% | viability, T/C (second compound 3.16 µM, first compound 0.316 µM) 86.5% | viability, T/C (second compound 3.16 µM, first compound 1 µM) 57.6% | viability, T/C (second compound 3.16 µM, first compound 3.16 µM) 40.7% | viability, T/C (second compound 3.16 µM, first compound 10 µM) 24.6% | viability, T/C (second compound 10 µM, first compound 0.0316 µM) 107% | viability, T/C (second compound 10 µM, first compound 0.1 µM) 75.9% | viability, T/C (second compound 10 µM, first compound 0.316 µM) 84.2% | viability, T/C (second compound 10 µM, first compound 1 µM) 44.5% | viability, T/C (second compound 10 µM, first compound 3.16 µM) 35% | viability, T/C (second compound 10 µM, first compound 10 µM) 20.1%
1970 nM: IC50 [5]
1730 nM: IC50 (curve of first compound, second compound 3.16 µM)
1720 nM: IC50 [3]
1140 nM: IC50 (curve of first compound, second compound 10 µM)
1340 nM: IC50 [6]
2390 nM: IC50 [4]
